Read-outs that look alike come from different tables or passages of the source.
What was measured:
Assay type in all cases: biochemical
CDK6/CCND1 = CDK6/CCND1 (Homo sapiens, UniProt Q00534); assay: CDK6 homogeneous time-resolved fluorescence (HTRF) kinase assay; conditions: CDK6/CCND, 1 mM ATP
Procedure, shortened: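 1 nM enzyme, 1 mM ATP, 50 nM ULight-4E-BP1 (Thr37/46) peptide, 1% DMSO; 20 min compound preincubation, 60 min reaction, 23 °C. EDTA stop, 2 nM Eu-anti-phospho-4E-BP1 antibody 60 min. TR-FRET 665 nm (or 665/615 ratio); IC50 from 11-point half-log titration, top 10 μM.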

CDK1/CCNB1 = CDK1/CCNB1 (Homo sapiens, UniProt P06493); assay: CDK1 homogeneous time-resolved fluorescence (HTRF) kinase assay; conditions: CDK1/CCNB
Chain of CDK1/CCNB1 (P06493 whole entry): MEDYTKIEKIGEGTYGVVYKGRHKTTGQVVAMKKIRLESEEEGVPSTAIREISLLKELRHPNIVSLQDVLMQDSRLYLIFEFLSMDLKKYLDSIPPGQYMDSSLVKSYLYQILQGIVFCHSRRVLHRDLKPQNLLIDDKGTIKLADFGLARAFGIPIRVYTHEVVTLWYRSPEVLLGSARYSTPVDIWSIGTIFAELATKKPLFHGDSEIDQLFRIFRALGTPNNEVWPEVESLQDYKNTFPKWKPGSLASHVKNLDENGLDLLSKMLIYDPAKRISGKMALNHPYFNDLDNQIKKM
Chain of CDK1/CCNB1 (P14635 whole entry partner): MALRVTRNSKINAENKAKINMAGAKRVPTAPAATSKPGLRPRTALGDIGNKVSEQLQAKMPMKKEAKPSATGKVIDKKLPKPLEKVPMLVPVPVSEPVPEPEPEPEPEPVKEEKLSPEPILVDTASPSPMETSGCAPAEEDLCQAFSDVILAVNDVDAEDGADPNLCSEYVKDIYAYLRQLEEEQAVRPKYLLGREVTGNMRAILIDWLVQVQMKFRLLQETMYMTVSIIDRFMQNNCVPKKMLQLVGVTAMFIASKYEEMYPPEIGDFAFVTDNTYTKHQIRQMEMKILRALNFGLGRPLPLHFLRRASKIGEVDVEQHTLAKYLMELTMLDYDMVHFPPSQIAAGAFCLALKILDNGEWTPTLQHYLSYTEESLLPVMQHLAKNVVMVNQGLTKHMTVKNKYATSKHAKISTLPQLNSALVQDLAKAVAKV
Procedure, shortened: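 CDK1/CCNB1 0.5 nM + cpd, 20 min 23 °C; add 1 mM ATP, 50 nM ULight-4E-BP1 peptide, 60 min 23 °C; stop 10 mM EDTA; 2 nM Eu-Ab, 60 min; HTRF 665 nm. 11-pt half-log, top 10 μM typical; IC50.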

CDK4/CCND3 = CDK4/CCND3 (Homo sapiens, UniProt P11802); assay: CDK4 homogeneous time-resolved fluorescence (HTRF) kinase assay; conditions: CDK4/CCND
Chain of CDK4/CCND3 (P11802 whole entry): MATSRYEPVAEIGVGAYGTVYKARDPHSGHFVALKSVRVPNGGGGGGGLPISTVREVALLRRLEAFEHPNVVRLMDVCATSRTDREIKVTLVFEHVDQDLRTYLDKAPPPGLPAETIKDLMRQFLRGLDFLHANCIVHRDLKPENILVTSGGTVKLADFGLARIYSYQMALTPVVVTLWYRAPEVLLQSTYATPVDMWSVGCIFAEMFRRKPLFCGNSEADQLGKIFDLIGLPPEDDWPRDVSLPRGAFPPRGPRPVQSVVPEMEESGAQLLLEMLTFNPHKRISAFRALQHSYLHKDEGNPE
Chain of CDK4/CCND3 (P30281 whole entry partner): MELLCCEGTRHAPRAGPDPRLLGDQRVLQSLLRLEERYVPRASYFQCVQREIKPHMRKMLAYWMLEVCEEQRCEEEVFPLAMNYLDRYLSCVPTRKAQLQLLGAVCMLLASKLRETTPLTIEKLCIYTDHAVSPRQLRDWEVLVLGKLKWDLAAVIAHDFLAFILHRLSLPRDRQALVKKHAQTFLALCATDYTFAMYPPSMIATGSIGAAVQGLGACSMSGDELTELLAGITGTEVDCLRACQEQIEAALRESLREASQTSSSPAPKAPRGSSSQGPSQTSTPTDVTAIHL
Procedure, shortened: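 Inhibition of CDK4/CCND3 (1.5 nM) was measured at high ATP (1 mM) using 50 nM ULight-labelled 4E-BP1 Thr37/46 peptide; detection used 2 nM europium anti-phospho antibody after EDTA quench. IC50 values came from 11-point half-log titrations typically starting at 10 μM.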

CDK2/CCNE1 = CDK2/CCNE1 (Homo sapiens, UniProt P24941); assay: CDK2 homogeneous time-resolved fluorescence (HTRF) kinase assay; conditions: CDK2/CCNE
Procedure, shortened: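 Compounds were titrated 11-point, half-log from typically 10 μM against 3 nM CDK2/cyclin E1 at 1 mM ATP, with a 20 min enzyme preincubation. Phosphorylation of 50 nM ULight-4E-BP1 peptide over 60 min at 23 °C was detected by europium anti-phospho antibody TR-FRET.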

[1] = >250 nM, read-out: CDK6/CCND IC50, >250 nM
[2] = >250 nM, read-out: CDK1/CCNB IC50 >250 nM
[3] = >250 nM, read-out: CDK4/CCND IC50, >250 nM
[4] = <25 nM, read-out: CDK2/CCNE IC50, <25 nM
[5] = 25-250 nM, read-out: CDK6/CCND IC50, 25-250 nM
[6] = 25-250 nM, read-out: CDK1/CCNB IC50, 25-250 nM
[7] = 25-250 nM, read-out: CDK4/CCND IC50, 25-250 nM
[8] = 25-250 nM, read-out: CDK2/CCNE IC50, 25-250 nM

Chain of CDK6/CCND1 (Q00534 whole entry): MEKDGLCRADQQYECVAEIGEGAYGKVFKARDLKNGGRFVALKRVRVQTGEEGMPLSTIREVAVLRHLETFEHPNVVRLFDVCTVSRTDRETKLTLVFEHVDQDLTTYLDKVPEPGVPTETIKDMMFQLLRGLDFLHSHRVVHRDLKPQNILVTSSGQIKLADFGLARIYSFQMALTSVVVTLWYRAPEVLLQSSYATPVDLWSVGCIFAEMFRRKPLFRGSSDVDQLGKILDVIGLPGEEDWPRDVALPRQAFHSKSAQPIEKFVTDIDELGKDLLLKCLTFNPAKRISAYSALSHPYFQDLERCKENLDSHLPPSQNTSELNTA
Chain of CDK6/CCND1 (P24385 whole entry partner): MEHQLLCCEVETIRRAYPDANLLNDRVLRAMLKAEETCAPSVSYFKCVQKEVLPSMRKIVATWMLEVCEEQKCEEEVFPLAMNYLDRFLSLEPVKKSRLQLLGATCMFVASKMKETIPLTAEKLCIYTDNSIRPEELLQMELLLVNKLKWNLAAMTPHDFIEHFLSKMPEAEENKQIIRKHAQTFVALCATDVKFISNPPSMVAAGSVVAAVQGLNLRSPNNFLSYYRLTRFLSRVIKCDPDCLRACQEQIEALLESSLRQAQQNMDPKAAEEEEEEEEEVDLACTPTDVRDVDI

SMILES | IC50 (CDK6/CCND1; [1]) | IC50 (CDK1/CCNB1; [2]) | IC50 (CDK4/CCND3; [3]) | IC50 (CDK2/CCNE1; [4]) | IC50 (CDK6/CCND1; [5]) | IC50 (CDK1/CCNB1; [6]) | IC50 (CDK4/CCND3; [7]) | IC50 (CDK2/CCNE1; [8]) | IC50 (CDK2/CCNE1; >250 nM, read-out: CDK2/CCNE IC50, >250 nM)
Cc1c(-c2nccc3cnc(Nc4ccc(S(=O)(=O)Nc5ccccc5)cc4)cc23)ccc2c1cnn2CC(C)(C)O [Ex 809, 4-((5-(1-(2-hydroxy-2-methylpropyl)-4-methyl-1H-indazol-5-yl)-2,6-naphthyridin-3-yl)amino)-N-phenylbenzenesulfonamide] | > 250 nM | > 250 nM | > 250 nM | < 25 nM | – | – | – | – | –
Cc1c(-c2nccc3cnc(Nc4ccc(S(=O)(=O)Nc5cc(C(F)(F)F)ccn5)cc4)cc23)ccc2c1cnn2CC(C)(C)O [Ex 816, 4-((5-(1-(2-hydroxy-2-methylpropyl)-4-methyl-1H-indazol-5-yl)-2,6-naphthyridin-3-yl)amino)-N-(4-(trifluoromethyl)pyridin-2-yl)benzenesulfonamide] | > 250 nM | > 250 nM | > 250 nM | < 25 nM | – | – | – | – | –
Cc1c(-c2nccc3cnc(Nc4ccc(NS(=O)(=O)c5cccc6nsnc56)cc4)cc23)ccc2c1cnn2CC(C)(C)O [Ex 819, N-(4-((5-(1-(2-hydroxy-2-methylpropyl)-4-methyl-1H-indazol-5-yl)-2,6-naphthyridin-3-yl)amino)phenyl)benzo[c][1,2,5]thiadiazole-4-sulfonamide] | > 250 nM | > 250 nM | > 250 nM | – | – | – | – | 25 to 250 nM | –
Cc1c(-c2nccc3cnc(Nc4ccc(NS(=O)(=O)c5cccc6nn(C)cc56)cc4)cc23)ccc2c1cnn2CC(C)(C)O [Ex 820, N-(4-((5-(1-(2-hydroxy-2-methylpropyl)-4-methyl-1H-indazol-5-yl)-2,6-naphthyridin-3-yl)amino)phenyl)-2-methyl-2H-indazole-4-sulfonamide] | > 250 nM | > 250 nM | > 250 nM | – | – | – | – | 25 to 250 nM | –
Cc1c(-c2nccc3cnc(Nc4ccc(NS(=O)(=O)c5cccc6nonc56)cc4)cc23)ccc2c1cnn2CC(C)(C)O [Ex 821, N-(4-((5-(1-(2-hydroxy-2-methylpropyl)-4-methyl-1H-indazol-5-yl)-2,6-naphthyridin-3-yl)amino)phenyl)benzo[c][1,2,5]oxadiazole-4-sulfonamide] | > 250 nM | > 250 nM | > 250 nM | < 25 nM | – | – | – | – | –
Cc1c(-c2nccc3cnc(Nc4ccc(NS(=O)(=O)c5cncc(Cl)c5)cc4)cc23)ccc2c1cnn2CC(C)(C)O [Ex 822, 5-chloro-N-(4-((5-(1-(2-hydroxy-2-methylpropyl)-4-methyl-1H-indazol-5-yl)-2,6-naphthyridin-3-yl)amino)phenyl)pyridine-3-sulfonamide] | > 250 nM | > 250 nM | > 250 nM | < 25 nM | – | – | – | – | –
Cc1ccc(S(=O)(=O)Nc2ccc(Nc3cc4c(-c5ccc6c(cnn6CC(C)(C)O)c5C)nccc4cn3)cc2)cn1 [Ex 823, N-(4-((5-(1-(2-hydroxy-2-methylpropyl)-4-methyl-1H-indazol-5-yl)-2,6-naphthyridin-3-yl)amino)phenyl)-6-methylpyridine-3-sulfonamide] | – | – | – | < 25 nM | 25 to 250 nM | 25 to 250 nM | 25 to 250 nM | – | –
Cc1c(-c2nccc3cnc(Nc4ccc(NS(=O)(=O)c5cnn(-c6ccccn6)c5)cc4)cc23)ccc2c1cnn2CC(C)(C)O [Ex 824, N-(4-((5-(1-(2-hydroxy-2-methylpropyl)-4-methyl-1H-indazol-5-yl)-2,6-naphthyridin-3-yl)amino)phenyl)-1-(pyridin-2-yl)-1H-pyrazole-4-sulfonamide] | > 250 nM | > 250 nM | > 250 nM | – | – | – | – | 25 to 250 nM | –
Cc1c(-c2nccc3cnc(Nc4ccc(NS(=O)(=O)c5ccoc5)cc4)cc23)ccc2c1cnn2CC(C)(C)O [Ex 825, N-(4-((5-(1-(2-hydroxy-2-methylpropyl)-4-methyl-1H-indazol-5-yl)-2,6-naphthyridin-3-yl)amino)phenyl)furan-3-sulfonamide] | – | – | – | < 25 nM | 25 to 250 nM | 25 to 250 nM | 25 to 250 nM | – | –
Cc1nn(-c2ccccc2)c(C)c1S(=O)(=O)Nc1ccc(Nc2cc3c(-c4ccc5c(cnn5CC(C)(C)O)c4C)nccc3cn2)cc1 [Ex 826, N-(4-((5-(1-(2-hydroxy-2-methylpropyl)-4-methyl-1H-indazol-5-yl)-2,6-naphthyridin-3-yl)amino)phenyl)-3,5-dimethyl-1-phenyl-1H-pyrazole-4-sulfonamide] | > 250 nM | > 250 nM | > 250 nM | – | – | – | – | – | > 250 nM

Other lines, results leading:

IC50 (CDK6/CCND1; [1]) | IC50 (CDK1/CCNB1; [2]) | IC50 (CDK4/CCND3; [3]) | IC50 (CDK2/CCNE1; [4]) | IC50 (CDK6/CCND1; [5]) | IC50 (CDK1/CCNB1; [6]) | IC50 (CDK4/CCND3; [7]) | IC50 (CDK2/CCNE1; [8]) | IC50 (CDK2/CCNE1; >250 nM, read-out: CDK2/CCNE IC50, >250 nM) | SMILES
– | > 250 nM | > 250 nM | < 25 nM | 25 to 250 nM | – | – | – | – | Cc1c(-c2nccc3cnc(Nc4ccc(S(=O)(=O)Nc5ccc(C(C)(C)O)cn5)cc4)cc23)ccc2c1cnn2CC(C)(C)O [Ex 810, 4-((5-(1-(2-hydroxy-2-methylpropyl)-4-methyl-1H-indazol-5-yl)-2,6-naphthyridin-3-yl)amino)-N-(5-(2-hydroxypropan-2-yl)pyridin-2-yl)benzenesulfonamide]
> 250 nM | – | > 250 nM | < 25 nM | – | 25 to 250 nM | – | – | – | Cc1c(-c2nccc3cnc(Nc4ccc(S(=O)(=O)Nc5cccc(C(C)(C)O)n5)cc4)cc23)ccc2c1cnn2CC(C)(C)O [Ex 811, 4-((5-(1-(2-hydroxy-2-methylpropyl)-4-methyl-1H-indazol-5-yl)-2,6-naphthyridin-3-yl)amino)-N-(6-(2-hydroxypropan-2-yl)pyridin-2-yl)benzenesulfonamide]
> 250 nM | > 250 nM | > 250 nM | < 25 nM | – | – | – | – | – | COc1cccc(NS(=O)(=O)c2ccc(Nc3cc4c(-c5ccc6c(cnn6CC(C)(C)O)c5C)nccc4cn3)cc2)n1 [Ex 812, 4-((5-(1-(2-hydroxy-2-methylpropyl)-4-methyl-1H-indazol-5-yl)-2,6-naphthyridin-3-yl)amino)-N-(6-methoxypyridin-2-yl)benzenesulfonamide]
– | > 250 nM | > 250 nM | < 25 nM | 25 to 250 nM | – | – | – | – | COc1ccnc(NS(=O)(=O)c2ccc(Nc3cc4c(-c5ccc6c(cnn6CC(C)(C)O)c5C)nccc4cn3)cc2)c1 [Ex 813, 4-((5-(1-(2-hydroxy-2-methylpropyl)-4-methyl-1H-indazol-5-yl)-2,6-naphthyridin-3-yl)amino)-N-(4-methoxypyridin-2-yl)benzenesulfonamide]
> 250 nM | > 250 nM | > 250 nM | < 25 nM | – | – | – | – | – | COc1cc(NS(=O)(=O)c2ccc(Nc3cc4c(-c5ccc6c(cnn6CC(C)(C)O)c5C)nccc4cn3)cc2)nc(OC)c1 [Ex 814, N-(4,6-dimethoxypyridin-2-yl)-4-((5-(1-(2-hydroxy-2-methylpropyl)-4-methyl-1H-indazol-5-yl)-2,6-naphthyridin-3-yl)amino)benzenesulfonamide]
> 250 nM | – | > 250 nM | < 25 nM | – | 25 to 250 nM | – | – | – | Cc1c(-c2nccc3cnc(Nc4ccc(S(=O)(=O)Nc5cccc(C(F)(F)F)n5)cc4)cc23)ccc2c1cnn2CC(C)(C)O [Ex 815, 4-((5-(1-(2-hydroxy-2-methylpropyl)-4-methyl-1H-indazol-5-yl)-2,6-naphthyridin-3-yl)amino)-N-(6-(trifluoromethyl)pyridin-2-yl)benzenesulfonamide]
– | > 250 nM | – | < 25 nM | 25 to 250 nM | – | 25 to 250 nM | – | – | Cc1cccc(NS(=O)(=O)c2ccc(Nc3cc4c(-c5ccc6c(cnn6CC(C)(C)O)c5C)nccc4cn3)cc2)n1 [Ex 817, 4-((5-(1-(2-hydroxy-2-methylpropyl)-4-methyl-1H-indazol-5-yl)-2,6-naphthyridin-3-yl)amino)-N-(6-methylpyridin-2-yl)benzenesulfonamide]
– | > 250 nM | – | < 25 nM | 25 to 250 nM | – | 25 to 250 nM | – | – | Cc1cc(C)nc(NS(=O)(=O)c2ccc(Nc3cc4c(-c5ccc6c(cnn6CC(C)(C)O)c5C)nccc4cn3)cc2)c1 [Ex 818, N-(4,6-dimethylpyridin-2-yl)-4-((5-(1-(2-hydroxy-2-methylpropyl)-4-methyl-1H-indazol-5-yl)-2,6-naphthyridin-3-yl)amino)benzenesulfonamide]

Source: patent publication US20260325533A1, “CDK INHIBITOR COMPOUNDS” (ALEKSIA THERAPEUTICS, INC., priority 2023, published 2026)
